Experimental findings from US20040030131A1, “Pharmaceutical compounds” (priority 2000, published 2004) are described below.

`Cc1cc2cc(C3=C(CN(C)C)C4CCC3C4)ccc2s1.Cl` (racemic): the melting point (usually the temperature of the solid-liquid transition) was 179.5 to 181.6 °C.
Then `CN(C)CC1=C(c2cccc3sccc23)C2CCC1C2` (racemic) [Example 15, (+/−)-((3-(Benzo[b]thiophen-4-yl)bicyclo[2.2.1]-hept-2-en-2-yl)methyl)dimethylamine], with 73.5 to 76.9 °C.
Take `COc1cccc2sc(C3=C(CN(C)C)C4CCC3C4)cc12.Cl` (racemic): the melting point fell in the range of 239 to 242 °C.
As for `COc1cccc2cc(C3=C(CN(C)C)C4CCC3C4)sc12.Cl` (racemic), the figure is 232 to 235 °C; as for `CNCC1=C(c2ccc3scc(C)c3c2)C2CCC(C1)C2.Cl` (stereo not shown), 204.5 to 206.7 °C.
As for `CN(C)CC1=C(c2ccc3sccc3c2)C2CCC(C1)C2.Cl` (stereo not shown), the figure is 57.8 °C.
Then `CN(C)CC1=C(c2cc3cc(F)ccc3s2)C2CCC(C1)C2.Cl` (racemic), with 207.4 to 211.1 °C.
